Laboratory results reported in patent US20140039044A1, “Hydroxylated Polymethoxyflavone Compositions” (WLLGEN, INC., priority 2006, published 2014).
Where two headings read alike, the source gives them in different places.

Columns and labels:
Assay type in all cases: cell-based, human
[1] = system: HT-29 cells; assay: Cell survival assay (antiproliferative IC50); details: Homo sapiens
Description: Human colon carcinoma COLO205 and HT-29 cell lines (American Type Culture Collection (ATTC), Manassas, Va.) and the leukemia cell line HL-60 were maintained at 37° C. in 5% CO2 air in RPMI 1640 medium supplemented with 10% heat-inactivated fetal bovine serum (Gibco BRL, Grand Island, N.Y.), 100 units/mL penicillin, 100 μg/mL streptomycin and 2 mM 1-glutamine. The human gastric carcinoma AGS cell line (CCRC 60102), obtained from the Food Industry Research and Development Institute (Hsinchu, Taiwan), was maintained as described above, except that DMEM/F 12 was used as the medium rather than the RPMI 1640 medium. The human breast carcinoma MCF-7 cell line MCF-7 (ATTC) was cultured in RPMI 1640 medium supplemented with 5% fetal calf serum at 37° C. in a humidified atmosphere of 5% CO2 in air. The mouse macrophage cell line RAW 264.7 was maintained in RPMI 1640 supplemented with 100 U/ml penicillin, 100 μg/ml streptomycin, and 10% heat-inactivated fetal calf serum.
Cancer cells (2×10^5) were plated in 12-well Petri dishes. The next day, the medium was changed and treated with different concentration of the test compounds or compositions for 24 h. Where individual compounds were to be tested, stock solutions of the compound was prepared to contain 200 μM of the individual hydroxylated or non-hydroxylated PMF in dimethylsulfoxide (DMSO). Control cells were treated with DMSO to a final concentration of 0.05% (v/v). Depending on the objective of the particular experiment, cells were treating with test compound or composition for 1, 3 or 6 days. At the end of incubation, cells were harvested for cell count using a hemocytometer and measuring the cellular total nucleic acid content with the CyQUANT Cell Proliferation Assay Kit (Molecular Probes).
(§1) The PMF compounds were assayed in vitro for cell growth inhibition and for their ability to induce apoptosis in various human cancer cells, including HL-60, AGS, COLO 205, and HT-29 cells, using methods described in Section 8.4 above. Antiproliferative (IC50) and apoptosis-inducing activity (AC50) of PMFs in the HL-60, AGS, COLO 205, and HT-29 cells are reported in Table 9, where *P<0.05, **P<0.01 and ***P<0.001 indicate statistically significant differences from the control group.

[2] = system: AGS cells; assay: Apoptotic ratio by propidium iodide flow cytometry (AC50); details: Homo sapiens, read-out: Apoptosis-inducing AC50
Description: (§2) The human cancer cells (2×10^5) were cultured in 60-mm Petri dishes and incubated for 24 h. After treated with test compounds for 24 h, the cells were then harvested, washed with PBS resuspended in 200 μL of PBS, and fixed in 800 μL of iced 100% ethanol at −20° C. After being left to stand overnight, the cell pellets were collected by centrifugation, resuspended in 1 mL of hypotonic buffer (0.5% Triton X-100 in PBS and 0.5 μg/mL RNase) and incubated at 37° C. for 30 min. Next, 1 mL of propidium iodide solution (50 μg/mL) was added, and the mixture was allowed to stand on ice for 30 min. Fluorescence emitted from the propidium iodide-DNA complex was quantitated after excitation of the fluorescent dye by FACScan cytometry (Becton Dickinson, San Jose, Calif.).
(§3) 1 N PMF and 6 N PMF compositions containing hydroxylated PMFs, prepared as described in Section 8.3 above, 70% PMF OPE and 5,6,7,8,3′,4′-hexamethoxyflavone (nobiletin) were tested for antiproliferative activity and apoptosis-inducing activity in HL-60, AGS and COLO205 cells as described in Section 8.4 above. Antiproliferative and apoptosis-inducing activities were derived as IC50 values and AC50, values, respectively, where AC50 is the concentration required for 50% apoptosis.
as §1

[3] = system: COLO205 cells; assay: as above; details: Homo sapiens
Description: as §2, §3, §1

[4] = system: HL-60 cells; assay: as above; details: Homo sapiens
Description: as §2, §3, §1

[5] = system: AGS cells; assay: Cell cycle distribution by flow cytometry; details: 24 h, Table 11
Description: as §2
The effects of the hydrolyzed PMF-enriched compositions, nobiletin and 70% PMF OPE on cell cycle distribution were studied, following the procedures described in Section 8.4. Results for cell cycle distribution in HL-60 cells, COLO205 cells and AGS cells are provided in Table 5, Table 6 and Table 7, respectively. […] In HL-60 cells, G2/M arrest predominated in cells treated with 6N PMF concentrations ≧5 μM and with 1N PMF concentrations ≧25 μM.
(§4) Compounds A-K were evaluated in terms of their effects in arresting cell cycle progression by observing cell cycle phase distribution in cells treated with the compounds. Cells were treated with 5, 10, 25, 50, and 100 μM of one of compound A-K or DMSO (control) for 24 h and subjected to flow cytometric analysis after staining their DNA, as described above.
(§5) Similar cell cycle phase distribution studies were performed in AGS, COLO205, and HT-29 cells in response to individual PMFs, with results reported in Tables 11, 12 and 13, respectively.

[6] = system: HT-29 cells; assay: Cell cycle distribution by flow cytometry; details: for Cell Cycle Distribution G0/G1 / Cell Cycle Distribution G2/M / Cell Cycle Distribution S: 24 h
Description: as §2, §4, §5

[7] = COLO 205, COLO205 cells, read-out: Apoptosis-inducing AC50
[8] = HL-60 cells, read-out: Apoptosis-inducing AC50

SMILES | IC50 [1] [µM] | Cell Cycle Distribution G0/G1 ([5]; 5 μM) | Cell Cycle Distribution G2/M ([5]; 5 μM) | Cell Cycle Distribution S ([5]; 5 μM) | Cell Cycle Distribution G0/G1 ([5]; 10 μM) | Cell Cycle Distribution G2/M ([5]; 10 μM) | Cell Cycle Distribution S ([5]; 10 μM) | Cell Cycle Distribution G0/G1 ([5]; 25 μM) | Cell Cycle Distribution G2/M ([5]; 25 μM) | Cell Cycle Distribution S ([5]; 25 μM) | Cell Cycle Distribution G0/G1 ([5]; 50 μM) | Cell Cycle Distribution G2/M ([5]; 50 μM) | Cell Cycle Distribution S ([5]; 50 μM) | Cell Cycle Distribution G0/G1 ([5]; 100 μM) | Cell Cycle Distribution G2/M ([5]; 100 μM) | Cell Cycle Distribution S ([5]; 100 μM) | Cell Cycle Distribution G0/G1 ([6]; 5 μM) | Cell Cycle Distribution G2/M ([6]; 5 μM) | Cell Cycle Distribution S ([6]; 5 μM) | Cell Cycle Distribution G0/G1 ([6]; 10 μM) | further results
COc1c(OC)c(OC)c2c(=O)cc(-c3ccc(O)c(O)c3)oc2c1OC [H, 3′,4′-dihydroxy-5,6,7,8-tetramethoxyflavone] | 74.72 ± 0.2 | 62.78 ± 2.93 | 16.57 ± 1.93 | 20.66 ± 1.00 | 61.72 ± 2.76 | 17.39 ± 2.76 | 20.89 ± 0.00 | 63.91 ± 0.92 | 16.82 ± 1.04 | 19.28 ± 0.12 | 63.96 ± 1.65 | 16.74 ± 2.15 | 19.31 ± 0.51 | 68.04 ± 1.34 | 22.69 ± 0.13 | 9.27 ± 1.46 | 63.21 ± 1.82 | 7.53 ± 0.81 | 29.26 ± 2.63 | 64.87 ± 0.74 | AC50 ([2]; AGS): > 100 µM; AC50 ([3]; COLO 205, read-out: Apoptosis-inducing AC50): > 100 µM; AC50 ([4]; HL-60, read-out: Apoptosis-inducing AC50): > 100 µM; Cell Cycle Distribution G2/M ([6]; 10 μM): 8.19 ± 0.09; Cell Cycle Distribution S ([6]; 10 μM): 26.95 ± 0.64; Cell Cycle Distribution G0/G1 ([6]; 25 μM): 63.87 ± 0.92; Cell Cycle Distribution G2/M ([6]; 25 μM): 8.45 ± 0.46; Cell Cycle Distribution S ([6]; 25 μM): 27.68 ± 1.37; Cell Cycle Distribution G0/G1 ([6]; 50 μM): 63.10 ± 0.16; Cell Cycle Distribution G2/M ([6]; 50 μM): 7.94 ± 0.84; Cell Cycle Distribution S ([6]; 50 μM): 28.98 ± 0.69; Cell Cycle Distribution G0/G1 ([6]; 100 μM): 61.66 ± 1.44; Cell Cycle Distribution G2/M ([6]; 100 μM): 4.98 ± 1.55; Cell Cycle Distribution S ([6]; 100 μM): 33.37 ± 0.11
COc1cc(-c2cc(=O)c3c(OC)c(OC)c(OC)c(OC)c3o2)ccc1O [Compound G, 4′-hydroxy-5,6,7,8,3′-pentamethoxyflavone] | 45.8 | 55.39 ± 0.47 | 16.76 ± 0.86 | 27.86 ± 1.32 | 60.42 ± 1.28 | 16.80 ± 1.75 | 22.79 ± 0.47 | 68.29 ± 0.95 | 14.39 ± 0.16 | 17.33 ± 0.80 | 62.27 ± 0.06 | 22.98 ± 1.90 | 14.78 ± 1.83 | 50.27 ± 0.52 | 26.85 ± 1.85 | 22.88 ± 2.38 | 56.92 ± 1.98 | 12.42 ± 0.44 | 30.66 ± 2.43 | 58.01 ± 1.22 | AC50 ([2]; AGS cells): > 100 µM; AC50 [3, 7]: > 100 µM; AC50 [4, 8]: 87.1 ± 7.83 µM; Cell Cycle Distribution G2/M ([6]; 10 μM): 9.97 ± 2.10; Cell Cycle Distribution S ([6]; 10 μM): 32.03 ± 0.88; Cell Cycle Distribution G0/G1 ([6]; 25 μM): 74.38 ± 1.68; Cell Cycle Distribution G2/M ([6]; 25 μM): 6.18 ± 0.06; Cell Cycle Distribution S ([6]; 25 μM): 19.55 ± 1.59; Cell Cycle Distribution G0/G1 ([6]; 50 μM): 84.63 ± 1.16; Cell Cycle Distribution G2/M ([6]; 50 μM): 7.99 ± 0.01; Cell Cycle Distribution S ([6]; 50 μM): 7.39 ± 1.16; Cell Cycle Distribution G0/G1 ([6]; 100 μM): 75.28 ± 1.61; Cell Cycle Distribution G2/M ([6]; 100 μM): 14.63 ± 0.21; Cell Cycle Distribution S ([6]; 100 μM): 10.11 ± 1.82; Cell cycle arrest, in words ([6]; 5-100 μM, 24 h exposure): significant accumulation of cells in G1 phase
COc1ccc(-c2cc(=O)c3c(O)c(OC)c(OC)c(OC)c3o2)cc1OC [J, 5-hydroxy-6,7,8,3′,4′-pentamethoxyflavone] | > 100 | 58.65 ± 1.77 | 13.51 ± 1.20 | 27.84 ± 0.56 | 57.07 ± 1.02 | 13.84 ± 0.52 | 29.09 ± 1.54 | 58.84 ± 4.84 | 14.00 ± 4.20 | 27.17 ± 0.64 | 52.82 ± 3.22 | 15.74 ± 0.11 | 31.45 ± 3.31 | 58.11 ± 1.11 | 12.71 ± 0.25 | 29.24 ± 1.28 | 64.81 ± 0.41 | 9.52 ± 0.05 | 25.68 ± 0.46 | 62.87 ± 0.40 | AC50 ([2]; AGS cells): > 100 µM; AC50 [3, 7]: > 100 µM; AC50 [4, 8]: > 100 µM; Cell Cycle Distribution G2/M ([6]; 10 μM): 9.02 ± 0.16; Cell Cycle Distribution S ([6]; 10 μM): 28.11 ± 0.57; Cell Cycle Distribution G0/G1 ([6]; 25 μM): 62.04 ± 1.24; Cell Cycle Distribution G2/M ([6]; 25 μM): 8.46 ± 0.09; Cell Cycle Distribution S ([6]; 25 μM): 29.51 ± 1.15; Cell Cycle Distribution G0/G1 ([6]; 50 μM): 60.39 ± 0.28; Cell Cycle Distribution G2/M ([6]; 50 μM): 9.93 ± 0.06; Cell Cycle Distribution S ([6]; 50 μM): 29.55 ± 0.52; Cell Cycle Distribution G0/G1 ([6]; 100 μM): 62.44 ± 1.00; Cell Cycle Distribution G2/M ([6]; 100 μM): 7.89 ± 0.69; Cell Cycle Distribution S ([6]; 100 μM): 29.67 ± 1.68
